Measured values from patent publication US20230286960A1, “ALLOSTERIC CHROMENONE INHIBITORS OF PHOSPHOINOSITIDE 3-KINASE (PI3K) FOR THE TREATMENT OF DISEASE” (Petra Pharma Corporation, priority 2020, published 2023).

target: human full length PIK3CA wild-type (p110α/p85α) (Homo sapiens (Human), UniProt P42336); test: PI3K-alpha kinase (PIK3CA) activity, wild-type, Transcreener ADP2 FI assay; settings: PI3K-α (PIK3CA) biochemical
Experimental: (§1) PI3K-Alpha Kinase (PIK3CA) Activity, Wild-Type and H1047R Mutant and Determining IC50 Values for Inhibitors
(§2) Recombinant, catalytically active human full length PIK3KA Wild-type and H1047R mutant were purchased as 1:1 complex of N-terminal 6× his tagged p110 ? (catalytic) and untagged p85 ? (regulatory subunit) from EMD Millipore Sigma (cat. no. 14-602M and 14-792M, respectively). The enzyme stocks were diluted to 5× stocks in buffer (20 mM HEPES pH 7.4, 100 mM NaCl, 0.5 mM EGTA, 0.01% triton-x-100) just before use. PIP2diC8 (Avanti Polar Lipids Inc., cat. no. 850185) or phosphoinositol-4,5-bisphosphate with phosphoserine (PIP2:PS) membrane (Thermo Fisher Scientific, cat. no. PV5100) was used as lipid substrates. PIP2diC8 lyophilized powder and PIP2:PS (1:19) membrane stock (1 mM in PIP2) were separately dissolved in milliQ water to a concentration of 250 uM and stored in −20° C. 10 mM stocks of compounds were serially diluted (3×) in neat DMSO and stored in a dessicator at room temperature. 5× compound stocks in 25% DMSO were prepared fresh from neat DMSO stocks.
(§3) Wild-type (WT) and H1047R mutant protein, along with buffer components (except ATP), were incubated with or without compound at 27° C. for 1 h. After incubation, the reaction was initiated by the addition of 5 uL of 125 uM ATP. A typical assay mixture (25 uL) comprised 40 mM HEPES buffer, pH 7.4, 25 mM MgCl2, 0.01% v/v triton-X-100, 5% v/v DMSO, 20 mM NaCl, 1-5 nM wt or H1047R, 25 uM ATP, and 50 uM PIP2diC8 or PIP2 in membrane. The reaction was allowed to proceed until about […] (2.5 uM ADP) after which time, 10 uL of reaction mixture was quenched with 25 uL of transcreener reagent (Transcreener ADP2 FI assay kit, BellBrook labs, Cat. No. 3013). The contents were incubated at rt for 1 h and fluorescence was measured using a plate reader (Paradigm, Molecular Devices). The same assay was also run at pH 6.0 or 6.4 using MOPS buffer (Fisher BioReagents, CAS 1132-61-2). A calibration curve was generated under identical buffer conditions with varying ADP amounts. Using that, the observed fluorescence was converted to uM ADP. A plot between [ADP] and log[I] yielded the dose-response curves that enabled the calculation of IC50s.

Chain of human full length PIK3CA wild-type (p110α/p85α) (P42336 whole entry): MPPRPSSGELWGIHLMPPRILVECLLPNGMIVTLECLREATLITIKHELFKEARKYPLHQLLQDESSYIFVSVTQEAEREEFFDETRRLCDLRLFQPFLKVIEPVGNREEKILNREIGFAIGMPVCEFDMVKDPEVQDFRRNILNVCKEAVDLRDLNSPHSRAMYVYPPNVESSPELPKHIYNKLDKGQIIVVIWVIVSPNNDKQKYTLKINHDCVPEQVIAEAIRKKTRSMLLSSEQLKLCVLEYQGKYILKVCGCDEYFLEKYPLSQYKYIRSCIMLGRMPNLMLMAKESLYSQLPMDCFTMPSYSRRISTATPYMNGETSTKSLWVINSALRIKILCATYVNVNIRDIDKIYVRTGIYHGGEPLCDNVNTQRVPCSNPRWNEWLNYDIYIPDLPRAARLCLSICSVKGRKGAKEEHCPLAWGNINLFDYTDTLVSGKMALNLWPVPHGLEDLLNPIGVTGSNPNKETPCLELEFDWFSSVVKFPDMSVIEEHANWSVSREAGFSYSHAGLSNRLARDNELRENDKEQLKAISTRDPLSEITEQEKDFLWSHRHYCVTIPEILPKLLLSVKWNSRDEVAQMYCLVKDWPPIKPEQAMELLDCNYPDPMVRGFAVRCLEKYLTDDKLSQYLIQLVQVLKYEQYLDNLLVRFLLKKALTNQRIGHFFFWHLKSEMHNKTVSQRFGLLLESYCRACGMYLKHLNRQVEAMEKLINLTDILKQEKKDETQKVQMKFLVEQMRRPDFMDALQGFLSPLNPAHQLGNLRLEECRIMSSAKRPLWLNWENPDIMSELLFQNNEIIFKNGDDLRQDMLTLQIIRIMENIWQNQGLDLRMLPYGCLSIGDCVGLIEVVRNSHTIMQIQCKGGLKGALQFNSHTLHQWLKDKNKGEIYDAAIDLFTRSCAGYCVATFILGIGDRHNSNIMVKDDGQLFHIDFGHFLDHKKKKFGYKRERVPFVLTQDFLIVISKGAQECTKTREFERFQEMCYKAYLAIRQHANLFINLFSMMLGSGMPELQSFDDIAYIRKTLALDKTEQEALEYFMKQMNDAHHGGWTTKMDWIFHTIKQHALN
Chain of human full length PIK3CA wild-type (p110α/p85α) (P27986 whole entry partner): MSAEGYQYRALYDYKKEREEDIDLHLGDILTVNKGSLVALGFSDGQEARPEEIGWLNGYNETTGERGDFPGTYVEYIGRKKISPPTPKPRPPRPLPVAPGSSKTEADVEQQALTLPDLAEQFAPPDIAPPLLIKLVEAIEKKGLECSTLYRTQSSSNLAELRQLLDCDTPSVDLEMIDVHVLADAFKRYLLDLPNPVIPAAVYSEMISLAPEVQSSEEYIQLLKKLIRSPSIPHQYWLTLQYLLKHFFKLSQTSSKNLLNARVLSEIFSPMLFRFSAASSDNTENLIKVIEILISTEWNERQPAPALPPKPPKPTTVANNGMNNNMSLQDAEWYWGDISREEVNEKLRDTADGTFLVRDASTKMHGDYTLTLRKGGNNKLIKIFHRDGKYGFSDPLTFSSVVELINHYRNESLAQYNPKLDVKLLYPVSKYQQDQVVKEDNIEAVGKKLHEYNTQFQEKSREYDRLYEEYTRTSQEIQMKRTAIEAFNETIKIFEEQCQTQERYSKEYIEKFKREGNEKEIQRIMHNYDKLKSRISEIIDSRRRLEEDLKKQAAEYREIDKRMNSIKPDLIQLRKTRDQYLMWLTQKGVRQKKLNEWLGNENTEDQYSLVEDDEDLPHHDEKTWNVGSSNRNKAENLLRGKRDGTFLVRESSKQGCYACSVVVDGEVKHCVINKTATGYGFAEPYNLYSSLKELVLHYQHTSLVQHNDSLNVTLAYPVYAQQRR

SMILES | IC50 [nM]
COc1cc(C(=O)O)c(NC(C)c2cc(C)cc3c(=O)cc(N4CCC(C)(C)CC4)oc23)cc1F (stereo not drawn) [Example 1, 2-[1-[2-(4,4-Dimethyl-1-piperidyl)-6-methyl-4-oxo-chromen-8-yl]ethylamino]-4-fluoro-5-methoxy-benzoic acid] | > 10000
Cc1cc(C(C)Nc2ccsc2C(=O)O)c2oc(N3CCC(C)(C)CC3)cc(=O)c2c1 (stereo not drawn) [Example 39, 3-[1-[2-(4,4-Dimethyl-1-piperidyl)-6-methyl-4-oxo-chromen-8-yl]ethylamino]thiophene-2-carboxylic acid] | > 10000
Cc1cc(C(C)Nc2ccccc2C(=O)O)c2oc(N3CCCC4(CNC(=O)C4)C3)cc(=O)c2c1 (stereo not drawn) [Example 61, 2-[1-[6-Methyl-4-oxo-2-(3-oxo-2,7-diazaspiro[4.5]decan-7-yl)chromen-8-yl]ethylamino]benzoic acid] | > 10000
Cc1cc(C(C)Nc2ccccc2C(=O)O)c2oc(N3CC(N(C)C)C3)cc(=O)c2c1 (stereo not drawn) [Example 68, 2-[1-[2-[3-(Dimethylamino)azetidin-1-yl]-6-methyl-4-oxo-chromen-8-yl]ethylamino]benzoic acid] | > 10000
Cc1cc(C(C)Nc2ccccc2C(=O)O)c2oc(N3CC4CCC(C3)O4)cc(=O)c2c1 (stereo not drawn) [Example 82, 2-[1-[6-Methyl-2-(8-oxa-3-azabicyclo[3.2.1]octan-3-yl)-4-oxo-chromen-8-yl]ethylamino]benzoic acid] | > 10000
Cc1cc(C(C)Nc2ccccc2C(=O)O)c2oc(N3CCS(=O)(=O)CC3)cc(=O)c2c1 (stereo not drawn) [Example 117, 2-[1-[2-(1,1-Dioxo-1,4-thiazinan-4-yl)-6-methyl-4-oxo-chromen-8-yl]ethylamino]benzoic acid] | > 10000
CCNc1cc(=O)c2cc(C)cc(C(C)Nc3ccccc3C(=O)O)c2o1 (stereo not drawn) [Example 126, 2-[1-[2-(Ethylamino)-6-methyl-4-oxo-chromen-8-yl]ethylamino]benzoic acid] | > 10000
Cc1cc(C(C)Nc2ccccc2C(=O)O)c2oc(N3CCn4cnnc4C3)cc(=O)c2c1 (stereo not drawn) [Example 163, 2-[1-[2-(6,8-Dihydro-5H-[1,2,4]triazolo[4,3-a]pyrazin-7-yl)-6-methyl-4-oxo-chromen-8-yl]ethylamino]benzoic acid] | > 10000
Cc1cc(C(C)Nc2ccccc2C(=O)O)c2oc(NC34CC5CC(CC(CO)(C5)C3)C4)cc(=O)c2c1 (stereo not drawn) [Example 169] | > 10000
COc1ccc(NC(C)c2cc(C)cc3c(=O)cc(N4Cc5ccccc5C4)oc23)c(C(=O)O)n1 (stereo not drawn) [Example 237, 3-[1-(2-Isoindolin-2-yl-6-methyl-4-oxo-chromen-8-yl)ethylamino]-6-methoxy-pyridine-2-carboxylic acid] | > 10000

target: human full length PIK3CA H1047R mutant (p110α/p85α) (Homo sapiens (Human), UniProt P42336, H1047R); test: PI3K-alpha kinase (PIK3CA) activity, H1047R mutant, Transcreener ADP2 FI assay; settings: PI3K-α (PIK3CA) biochemical
Experimental: as §1, §2, §3

Chain of human full length PIK3CA H1047R mutant (p110α/p85α) (P42336 whole entry H1047R): as the sequence (P42336 whole entry) above, with H1047R counted along it
Chain of human full length PIK3CA H1047R mutant (p110α/p85α) (P27986 whole entry partner): as the sequence (P27986 whole entry partner) above

SMILES | IC50 [nM]
CONC(=O)c1ccccc1NC(C)c1cc(C)cc2c(=O)cc(N3CCC(C)(C)CC3)oc12 (stereo not drawn) [Example 19, 2-[1-[2-(4,4-Dimethyl-1-piperidyl)-6-methyl-4-oxo-chromen-8-yl]ethylamino]-N-methoxy-benzamide] | < 500
Cc1cc(C(C)Nc2ccccc2-c2nnn[nH]2)c2oc(N3CCC(C)(C)CC3)cc(=O)c2c1 (stereo not drawn) [Example 20, 2-(4,4-Dimethyl-1-piperidyl)-6-methyl-8-[1-[2-(1H-tetrazol-5-yl)anilino]ethyl]chromen-4-one] | < 500
CCc1c(N2CCC(C)(C)CC2)oc2c(C(C)Nc3ccccc3C(=O)O)cc(C)cc2c1=O (stereo not drawn) [Example 55, 2-[1-[2-(4,4-dimethyl-1-piperidyl)-3-ethyl-6-methyl-4-oxo-chromen-8-yl]ethylamino]benzoic acid] | < 500
Cc1cc(C(C)Nc2ccccc2C(=O)O)c2oc(N3CCCC(C)(C)C3)cc(=O)c2c1 (stereo not drawn) [Example 65, 2-[1-[2-(3,3-Dimethyl-1-piperidyl)-6-methyl-4-oxo-chromen-8-yl]ethylamino]benzoic acid] | < 500
Cc1cc(C(C)Nc2ccccc2C(=O)O)c2oc(N3CC4(CCCCC4)C3)cc(=O)c2c1 (stereo not drawn) [Example 88, 2-[1-[2-(2-Azaspiro[3.5]nonan-2-yl)-6-methyl-4-oxo-chromen-8-yl]ethylamino]benzoic acid] | < 500
Cc1cc(C(C)Nc2ccccc2C(=O)O)c2oc(N3Cc4ccc(F)cc4C3)cc(=O)c2c1 (stereo not drawn) [Example 105, 2-[1-[2-(5-Fluoroisoindolin-2-yl)-6-methyl-4-oxo-chromen-8-yl]ethylamino]benzoic acid] | < 500
Cc1cc(C(C)Nc2ccccc2C(=O)O)c2oc(N3CCn4cccc4C3)cc(=O)c2c1 (stereo not drawn) [Example 171, 2-[1-[2-(3,4-Dihydro-1H-pyrrolo[1,2-a]pyrazin-2-yl)-6-methyl-4-oxo-chromen-8-yl]ethylamino]benzoic acid] | < 500
Cc1cc(C(C)Nc2ccccc2C(=O)O)c2oc(N3CC4CC(C4)C3)cc(=O)c2c1 (stereo not drawn) [Example 177, 2-[1-[2-(3-Azabicyclo[3.1.1]heptan-3-yl)-6-methyl-4-oxo-chromen-8-yl]ethylamino]benzoic acid 2,2,2-trifluoroacetic acid] | < 500
Cc1cc(C(C)Nc2ccccc2C(=O)O)c2oc(N3CC(C(C)(F)F)C3)cc(=O)c2c1 (stereo not drawn) [Example 189, 2-[1-[2-[3-(1,1-Difluoroethyl)azetidin-l-yl]-6-methyl-4-oxo-chromen-8-yl]ethylamino]benzoic acid 2,2,2-trifluoroacetic acid] | < 500
Cc1cc(C(C)Nc2ccccc2C(=O)O)c2oc(N3CCc4ccccc4C3)cc(=O)c2c1 (stereo not drawn) [Example 233, 2-[1-[2-(3,4-Dihydro-1H-isoquinolin-2-yl)-6-methyl-4-oxo-chromen-8-yl]ethylamino]benzoic acid] | < 500
Cc1cc(C(C)Nc2sc(Cl)nc2C(=O)O)c2oc(N3Cc4ccccc4C3)cc(=O)c2c1 (stereo not drawn) [Example 245, 2-Chloro-5-[1-(2-isoindolin-2-yl-6-methyl-4-oxo-chromen-8-yl)ethylamino]thiazole-4-carboxylic acid 2,2,2-trifluoroacetic acid] | < 500
Cc1cc([C@@H](C)Nc2ccccc2C(=O)O)c2oc(N3CCC(C#N)(c4ccccc4)CC3)c(C)c(=O)c2c1 [Example 288, 2-[[(1R)-1-[2-(4-Cyano-4-phenyl-1-piperidyl)-3,6-dimethyl-4-oxo-chromen-8-yl]ethyl]amino]benzoic acid] | < 500
Cc1cc([C@@H](C)Nc2ccccc2C(=O)O)c2oc(N3CC4(CCC4(F)F)C3)c(C)c(=O)c2c1 [Example 289, 2-[[(1R)-1-[2-(7,7-Difluoro-2-azaspiro[3.3]heptan-2-yl)-3,6-dimethyl-4-oxo-chromen-8-yl]ethyl]amino]benzoic acid] | < 500
Cc1cc(C(C)Nc2ccc(Cl)nc2C(=O)O)c2oc(N3Cc4ccc(F)cc4C3)cc(=O)c2c1 (stereo not drawn) [Example 297, 6-Chloro-3-[1-[2-(5-fluoroisoindolin-2-yl)-6-methyl-4-oxo-chromen-8-yl]ethylamino]pyridine-2-carboxylic acid] | < 500
Cc1cc(C(C)Nc2ccc(Cl)nc2C(=O)O)c2oc(N3Cc4ccc5c(c4C3)OCO5)cc(=O)c2c1 (stereo not drawn) [Example 299, 6-Chloro-3-[1-[2-(6,8-dihydro-[1,3]dioxolo[4,5-e]isoindol-7-yl)-6-methyl-4-oxo-chromen-8-yl]ethylamino]pyridine-2-carboxylic acid] | < 500
Cc1cc(C(C)Nc2ccc(Cl)nc2C(=O)O)c2oc(N3CCC4(CC3)CC4)c(C)c(=O)c2c1 (stereo not drawn) [Example 302, 3-[1-[2-(6-Azaspiro[2.5]octan-6-yl)-3,6-dimethyl-4-oxo-chromen-8-yl]ethylamino]-6-chloro-pyridine-2-carboxylic acid] | < 500
Cc1cc([C@@H](C)Nc2ccccc2C(=O)O)c2oc(N3CCCCC3)cc(=O)c2c1 [Example 376, 2-[[(1R)-1-[6-Methyl-4-oxo-2-(1-piperidyl)chromen-8-yl]ethyl]amino]benzoic acid] | < 500
CC(Nc1ccccc1C(=O)O)c1cc(C(F)(F)F)cc2c(=O)cc(N3CCC(F)(F)CC3)oc12 (stereo not drawn) [Example 396, 2-[1-[2-(4,4-Difluoro-1-piperidyl)-4-oxo-6-(trifluoromethyl)chromen-8-yl]ethylamino]benzoic acid 2,2,2-trifluoroacetic acid] | < 500
CC(Nc1ccccc1C(=O)O)c1cc(F)cc2c(=O)cc(N3CCC4(CC3)CC4)oc12 (stereo not drawn) [Example 398, 2-[1-[2-(6-Azaspiro[2.5]octan-6-yl)-6-fluoro-4-oxo-chromen-8-yl]ethylamino]benzoic acid 2,2,2-trifluoroacetic acid] | < 500
CC(Nc1ccccc1C(=O)O)c1cc(F)cc2c(=O)cc(N3CCC(F)(F)CC3)oc12 (stereo not drawn) [Example 399] | < 500
